The target of experiment [1] is T1, HsOr152 (Harpegnathos saltator, UniProt Z9SO02V7Q0).
T1 construct: V subfamily OR; full-length, UAS-HsOr152 (pUASg.attB, attP40) in D. melanogaster ab2A neurons by Orco-GAL4; complex with endogenous DmOrco (D. melanogaster); with Odorant receptor coreceptor (Drosophila melanogaster)
T1 sequence (Z9SO02V7Q0 1-385): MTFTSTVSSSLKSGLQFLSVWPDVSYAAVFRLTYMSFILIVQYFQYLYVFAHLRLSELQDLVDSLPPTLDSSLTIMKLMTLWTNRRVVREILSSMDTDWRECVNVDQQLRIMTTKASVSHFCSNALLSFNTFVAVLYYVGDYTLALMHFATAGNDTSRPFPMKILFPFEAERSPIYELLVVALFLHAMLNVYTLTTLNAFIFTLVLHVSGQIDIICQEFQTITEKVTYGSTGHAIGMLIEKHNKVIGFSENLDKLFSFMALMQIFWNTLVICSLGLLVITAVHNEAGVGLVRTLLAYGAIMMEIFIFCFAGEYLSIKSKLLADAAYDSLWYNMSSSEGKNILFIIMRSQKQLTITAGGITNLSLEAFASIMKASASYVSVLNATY
T1 sequence (Q9VNB5 1-486 partner): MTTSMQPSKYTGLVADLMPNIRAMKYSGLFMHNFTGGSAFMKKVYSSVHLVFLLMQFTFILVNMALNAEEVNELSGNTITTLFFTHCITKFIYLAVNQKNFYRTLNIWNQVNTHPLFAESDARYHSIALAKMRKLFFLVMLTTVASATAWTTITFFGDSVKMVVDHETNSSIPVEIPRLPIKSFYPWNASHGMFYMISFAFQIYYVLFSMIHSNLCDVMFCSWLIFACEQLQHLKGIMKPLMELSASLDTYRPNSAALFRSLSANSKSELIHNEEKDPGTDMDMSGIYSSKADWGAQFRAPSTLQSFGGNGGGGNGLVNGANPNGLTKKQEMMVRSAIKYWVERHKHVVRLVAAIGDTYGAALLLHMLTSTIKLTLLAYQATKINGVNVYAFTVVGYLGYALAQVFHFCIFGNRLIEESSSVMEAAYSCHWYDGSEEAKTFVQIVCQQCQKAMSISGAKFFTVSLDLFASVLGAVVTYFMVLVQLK
As to the kind of experiment: single-sensillum recording of Drosophila ab2A neurons expressing the receptor. The class given is cell-based. Conditions: 20 nmol dosed on heated cartridge; with DmOrco; excitatory; solvent (pentane) response subtracted.

Experiment [2] addresses T2, HsOr115 (Harpegnathos saltator, UniProt Z9I713BLV2).
T2 construct: full-length, UAS-HsOr (pUASg.attB, attP40) in D. melanogaster ab2A neurons by Orco-GAL4; complex with endogenous DmOrco (D. melanogaster); with Odorant receptor coreceptor (Drosophila melanogaster)
T2 sequence (Z9I713BLV2 1-398): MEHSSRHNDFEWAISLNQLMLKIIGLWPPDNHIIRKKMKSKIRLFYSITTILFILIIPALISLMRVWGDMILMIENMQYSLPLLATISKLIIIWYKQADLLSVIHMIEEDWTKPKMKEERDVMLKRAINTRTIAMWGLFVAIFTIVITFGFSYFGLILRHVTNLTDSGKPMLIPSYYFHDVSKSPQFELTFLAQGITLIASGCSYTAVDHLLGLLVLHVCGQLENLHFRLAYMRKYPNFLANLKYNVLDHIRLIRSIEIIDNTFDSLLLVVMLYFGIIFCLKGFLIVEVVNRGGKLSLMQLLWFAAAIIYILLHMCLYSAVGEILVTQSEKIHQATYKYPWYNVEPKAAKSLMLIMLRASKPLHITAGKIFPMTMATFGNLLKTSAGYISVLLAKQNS
T2 sequence (Q9VNB5 1-486 partner): T1 sequence (Q9VNB5 1-486 partner)
The description is as above. The class given is cell-based. Conditions: 20 nmol dosed on heated cartridge; with DmOrco; excitatory; solvent (pentane) response subtracted.

With `CCCCCCCCCCCCCCCCCCCCCCCCCCCC` [C28, octacosane], the “mean response (Δspikes/s) at 20 nmol” value in experiment [1] was 87.5 Δspikes/s.

Regarding `CCCCCCCCCCCCCCCCCCCCCCCCCCCCCC` [C30], in experiment [2], the “response (Δspikes/s) at 20 nmol” value is 33.0 Δspikes/s.

Source of the values: publication PMC13050904, “Sensitivity to cuticular hydrocarbons across the odorant receptor family in the Indian jumping ant, Harpegnathos saltator” (Frontiers in Insect Science, 2026).
